Read-outs that look alike come from different tables or passages of the source.

Broadly, the IC50 is the concentration at which inhibition is half-maximal.

In one experiment the target is PHD2 (Homo sapiens, UniProt Q9GZT9). The experiment can be described thus: MALDI-TOF MS PHD hydroxylation assay. The experiment is classed as biochemical. The following applies: 1μM isolated recombinant human PHD2, MALDI-TOF MS. As to the method:
Protocols for in vitro PHD1–3 MALDI-TOF MS hydroxylation assays[30] and for the AlphaScreen histone demethylase assays[44] were as reported.
Although sharing homologous C-terminal catalytic domains, the N-terminal regions of PHD1–3 vary. […] In vitro inhibition assays of the clinical trial PHD inhibitors (and some of their structurally related analogue) against 1 μM recombinant human PHD1–3 were performed.
Fig. S11. In vitro PHD isoform selectivity profiling of PHD inhibitors. Inhibition of PHD inhibitors against human PHD125 -3 as assayed by MALDI-TOF MS (the protocol is described in Chan et al. ). Eight concentrations were used to obtained dose-response curve for each compound. Data points presented in the graph are mean with standard deviation, n=3. IC50 […]
(1 picture or pasted object on this page, not shown here)

The target in experiment [1] is T1, PHD2 catalytic domain (residues 181-426) (Homo sapiens, UniProt Q9GZT9). The experiment can be described thus: AlphaScreen antibody based PHD2 assay (HIF-1α CODD peptide hydroxylation). It is filed as biochemical. Also noted: 10 nM PHD2 (catalytic domain, residues 181–426); made in house. The following applies: AlphaScreen; 5 nM PHD2, 2 μM 2OG, 60 nM biotinylated CODD peptide; read-out: IC50 PHD2. As to the method: AlphaScreen antibody based PHD assays were as reported[39] using 384-well white ProxiPlates™ (PerkinElmer). Reactions were performed in 50 mM HEPES buffer pH 7.5, 0.01% Tween-20 and 0.1% BSA in a final volume of 10 μL at room temperature. […] The luminescence signal was measured using an Envision (Perkin Elmer) plate reader. Data were analyzed utilizing GraphPad prism.
(Bead proximity is the source of the signal in Alpha formats.)

Experiment [2] has as its target T1, PHD2 catalytic domain (residues 181-426). Description: NMR KD measurement (2OG displacement or water relaxation). It is filed as binding. Set-up: The catalytic domain of human PHD2 (residues 181-426) was used in all; made in house. The following applies: water relaxation or 2OG displacement. As to the method: Water-Ligand Observed Gradient SpectroscopY (wLOGSY) experiments were conducted […]
Solvent excitation was achieved using a 16 ms 180 degree selective rectangular shape pulse with 100% truncation level and 1000 points (Squa100.1000) set at the H2O frequency. Water suppression was achieved by a 2 ms Sinc (Sinc1.1000) pulse at the H2O frequency.
2OG displacement experiments were monitored by CPMG-edited 1H NMR using a Bruker […]
supplemented with 60 µM Zn(II) and increasing concentrations of the inhibitors from a […]
(90°x−[τ−180°y−τ−90°y−τ−180°y−τ]n−acq), was applied. Typical experimental parameters were […]
suppression was achieved by presaturation.
For 13C-CODD and […] displacement experiments, 1D Clean In-Phase (CLIP) HSQC with selective 13C-inversion displacement experiments were conducted using a Bruker AV700 instrument. 3 mm MATCH NMR tubes were used (Cortecnet). All experiments were […]
prolyl-ring. 7 The CLIP-HSQC sequence was used for 1D HSQC experiments (without 13C decoupling).8 Relaxation delay was 2s. The 1JCH was set to 160 Hz. A 6.8 ms Q3.1000 180 degree pulse was used and selective irradiation was applied at the selected chemical shift. […]
Samples were prepared by mixing reaction mixture (1 μL) with α-cyano-4-hydrocinnamic acid (CHCA) solution (water:acetonitrile 1:1) (1 μL). Dose-response was assessed in 8-point […]

For experiment [3] the target is unchanged. The experiment can be described thus: 1H CPMG NMR screening of equimolar enzyme-inhibitor mixture. It is filed as binding. Set-up: The catalytic domain of human PHD2 (residues 181-426) was used in all; made in house. The following applies: equimolar enzyme-inhibitor mixture (50 µM).
A further experiment concerns the target FIH (Homo sapiens, UniProt Q9NWT6). Description: LC-MS (RapidFire) FIH hydroxylation assay. It is filed as biochemical.

T1 sequence (Q9GZT9 181-426): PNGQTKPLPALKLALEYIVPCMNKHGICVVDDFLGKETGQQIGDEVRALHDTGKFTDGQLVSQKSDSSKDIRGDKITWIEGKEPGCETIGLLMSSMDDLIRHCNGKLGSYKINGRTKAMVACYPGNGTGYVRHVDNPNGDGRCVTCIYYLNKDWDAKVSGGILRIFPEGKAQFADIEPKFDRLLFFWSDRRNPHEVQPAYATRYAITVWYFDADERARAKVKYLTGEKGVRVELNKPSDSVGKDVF
FIH, sequence (Q9NWT6 whole entry): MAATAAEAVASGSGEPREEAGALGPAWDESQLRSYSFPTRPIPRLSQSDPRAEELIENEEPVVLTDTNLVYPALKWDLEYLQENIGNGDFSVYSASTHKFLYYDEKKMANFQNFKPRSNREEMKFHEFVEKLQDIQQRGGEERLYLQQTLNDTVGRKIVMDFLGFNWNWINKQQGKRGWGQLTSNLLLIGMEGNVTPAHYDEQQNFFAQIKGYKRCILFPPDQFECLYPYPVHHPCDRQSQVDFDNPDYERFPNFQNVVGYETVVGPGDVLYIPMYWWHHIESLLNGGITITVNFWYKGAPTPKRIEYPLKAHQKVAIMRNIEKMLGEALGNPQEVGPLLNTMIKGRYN
PHD2, sequence (Q9GZT9 whole entry): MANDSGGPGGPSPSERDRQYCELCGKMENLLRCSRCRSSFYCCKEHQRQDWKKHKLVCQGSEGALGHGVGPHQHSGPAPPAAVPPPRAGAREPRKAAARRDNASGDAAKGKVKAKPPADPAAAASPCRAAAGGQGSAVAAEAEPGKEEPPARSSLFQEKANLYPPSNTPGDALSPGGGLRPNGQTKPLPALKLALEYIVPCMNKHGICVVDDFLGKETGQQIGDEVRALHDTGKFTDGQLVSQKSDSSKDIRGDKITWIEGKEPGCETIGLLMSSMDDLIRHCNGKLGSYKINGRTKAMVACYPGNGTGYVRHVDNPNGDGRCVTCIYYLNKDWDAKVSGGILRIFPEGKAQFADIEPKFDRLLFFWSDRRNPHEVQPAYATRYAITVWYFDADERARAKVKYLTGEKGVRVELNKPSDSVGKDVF

In the case of `CC(C)(C)OC(=O)c1ccc(-n2[nH]cc(-n3ccnn3)c2=O)nc1` [IOX4], the IC50 on PHD2 was determined as 940 nM; in experiment [1], 3 nM. Further, in experiment [2], the KD entry was “sub-μM range”. The “binding by 1H CPMG NMR” value in experiment [3] is listed as “strong binding”.
`Cc1nc(C(=O)NCC(=O)O)c(O)c2ccc(Oc3ccccc3)cc12` [FG-4592] showed an IC50 against FIH greater than 100000 nM.
In the case of `O=c1c(-n2ccnn2)c[nH]n1-c1cc(N2CCOCC2)ncn1` [Molidustat], on FIH (isolated protein assays, Table 1), the “IC50 for FIH relative to PHD2” value was greater than 100 fold. The IC50 at FIH (isolated recombinant enzyme, read-out: IC50 FIH) was found to be 66000 nM; at PHD2, 1850 nM; in experiment [1], 7 nM. In experiment [2], the KD entry is listed as “sub-μM range”. Moreover, the “binding by 1H CPMG NMR” value in experiment [3] was “strong binding”.

The values are drawn from PMC5802278, “Molecular and cellular mechanisms of HIF prolyl hydroxylase inhibitors in clinical trials” (Chemical Science, 2017).
